These results are taken from patent publication US20110183942A1, “Methods and Compositions for Treating Alzheimer's Disease” (UNIVERSITY OF MEDICINE AND DENTISTRY OF NEW JERSEY, priority 2008, published 2011).

The test system of assay [1] is Arc protein in DIV14 forebrain neurons. In words: Western blot of Arc protein in cultured forebrain neurons. It is filed as cell-based, mouse. Here is the method: For biochemistry experiments, 0.4×10^6 neurons were added to each well of a 6-well plate (Coming) coated with poly-L-lysine. Growth medium consisted of NeuroBasal (Invitrogen) supplemented with 1% fetal bovine serum (Hyclone), 2% B27, 1% Glutamax (Invitrogen), 100 U/mL penicillin, and 100 U/mL streptomycin (Invitrogen). Neurons were fed twice per week with glia conditioned growth medium.
(§1) Transfected HEK293T cells or cultured neurons were treated with various drugs and then harvested in IP buffer supplemented with 1% Triton X-100 buffer and Complete™ EDTA-Free protease inhibitors. Soluble fractions were diluted with 4× SDS sample buffer.
(§2) The membrane was blocked with TBST (50 mM Tris, pH 7.5, with 150 mM NaCl, and 0.1% Tween-20) containing 5% non-fat milk for one hour at room temperature, followed by incubation with primary antibody in TBST buffer overnight at 4° C. After three washes with TBST buffer, membranes were incubated with HRP-conjugated anti-rabbit, or anti-mouse antibody in TBST for another hour. After three washes with TBST buffer, the membrane was treated with SuperSignal ECL substrate (Pierce) according to the manufacturer's protocol.
To reduce the background signal in the co-IP assay, HRP-conjugated HA or HPR conjugated myc antibody (Santa Cruz) was used when overexpressed proteins were tagged with HA or myc. […] Image J software (NIH) was used for quantification.

Assay [2] deals with Arc protein in DIV14 hippocampal neurons. Nature of the assay: Arc immunocytochemistry in cultured hippocampal neurons. The class given is cell-based, mouse. The procedure:
Immunocytochemistry of cultured neurons was performed as described (Shepherd et al., Neuron, 52, 475-484 (2006)). Briefly, DIV14 primary hippocampal neurons were fixed in fixation solution (4% paraformaldehyde, 4% sucrose containing 1× PBS) for 20 min at 4° C. and were permeabilized with 0.2% Triton X-100 in PBS for 10 min 4° C. Cells were then blocked for 1 hr at room temperature in 10% normal goat serum (NGS). Primary antibodies were diluted (1:250 of phospho-eEF2 antibody, 1:500 of PSD95, 1:300 for Arc) in 10% NGS and incubated with neurons for overnight at 4° C. Alexa 488, or Alexa 555-conjugated secondary antibodies (1:500; Molecular Probes) were diluted in 10% NGS and incubated at room temperature for 1 hr. Coverslips were mounted with PermaFluor containing DAPI (Invitrogen). All images were taken with same exposure and setting using Zeiss 510 Meta confocal microscope. Quantification of Arc levels was carried out using Image J software. For the measurement of dendritic Arc levels, average pixel intensity was measured in the primary dendrites 20 μm away from the soma.

Another assay deals with phospho-eEF2. In words: Phospho-eEF2 in hippocampal slices (immunohistochemistry, Western blot). It is filed as cell-based, mouse. As to conditions: WT hippocampal slices, DHPG 50 μM, 5 min. The procedure: as §1
as §2, with “Samples were separated electrophoretically using NuPAGE 4-12% Bis-Tris gels (Invitrogen) and transferred to an Immobilon-P PVDF membrane (Millipore). The” for “The”
Immunohistochemistry of phospho-eEF2 in WT and eEF2K mice was performed as described (Ramirez-Amaya et al., J. Neurosci. 25, 1761-1768 (2005)) with slight modifications. […] The signals were visualized using the cyanine 3 (CY3) TSA fluorescence system (PerkinElmer Life Sciences), and the nuclei were stained with DAPI (Molecular Probes). No staining was detected in the absence of the primary or secondary antibodies. No phospho-eEF2 signal was detected in eEF2K KO sections.
Background: Immunoblotting shows a protein as a band on a membrane.

For a further assay, the target named is T1, eEF2K-mGluR5 interaction (Mus musculus, UniProt Q3UVX5).
T1 construct: confirmed that native mGluR5 associated with eEF2K; from tissue; host or cells: mouse forebrain synaptoneurosomes
Nature of the assay: Co-immunoprecipitation of mGluR5 with eEF2K in synaptoneurosomes. As to conditions: WT forebrain synaptoneurosomes, DHPG 20 min.

In assay [3] the test system is surface AMPA receptor (GluR2/3, GluR1) in cultured neurons. In words: Surface biotinylation assay of AMPA receptor subunits. It is filed as cell-based, mouse. As to conditions: DHPG 5 min. The procedure:
For surface biotinylation, drug-treated cortical neurons were cooled on ice, washed twice with ice-cold PBS++ (1× PBS, 1 mM CaCl2, 0.5 mM MgCl2) and then incubated with PBS++ containing 1 mg/ml Sulfo-NHS-SSBiotin (Pierce) for 30 min at 4° C. Unreacted biotin was quenched by washing cells three times with PBS++ containing 100 mM Glycine (pH 7.4) (briefly once and for 5 min twice). Cultures were harvested in RIPA buffer and sonicated. Homogenates were centrifuged at […] for 20 min at 4° C. Fifteen % of supernatant was saved as the total protein. […] Precipitates were washed with RIPA buffer three times (5 min each time). All procedures were done at 4° C.

Entries after “also recorded” stand apart in the source; their conditions may differ.

T1 sequence (Q3UVX5 21-1203 limits assumed): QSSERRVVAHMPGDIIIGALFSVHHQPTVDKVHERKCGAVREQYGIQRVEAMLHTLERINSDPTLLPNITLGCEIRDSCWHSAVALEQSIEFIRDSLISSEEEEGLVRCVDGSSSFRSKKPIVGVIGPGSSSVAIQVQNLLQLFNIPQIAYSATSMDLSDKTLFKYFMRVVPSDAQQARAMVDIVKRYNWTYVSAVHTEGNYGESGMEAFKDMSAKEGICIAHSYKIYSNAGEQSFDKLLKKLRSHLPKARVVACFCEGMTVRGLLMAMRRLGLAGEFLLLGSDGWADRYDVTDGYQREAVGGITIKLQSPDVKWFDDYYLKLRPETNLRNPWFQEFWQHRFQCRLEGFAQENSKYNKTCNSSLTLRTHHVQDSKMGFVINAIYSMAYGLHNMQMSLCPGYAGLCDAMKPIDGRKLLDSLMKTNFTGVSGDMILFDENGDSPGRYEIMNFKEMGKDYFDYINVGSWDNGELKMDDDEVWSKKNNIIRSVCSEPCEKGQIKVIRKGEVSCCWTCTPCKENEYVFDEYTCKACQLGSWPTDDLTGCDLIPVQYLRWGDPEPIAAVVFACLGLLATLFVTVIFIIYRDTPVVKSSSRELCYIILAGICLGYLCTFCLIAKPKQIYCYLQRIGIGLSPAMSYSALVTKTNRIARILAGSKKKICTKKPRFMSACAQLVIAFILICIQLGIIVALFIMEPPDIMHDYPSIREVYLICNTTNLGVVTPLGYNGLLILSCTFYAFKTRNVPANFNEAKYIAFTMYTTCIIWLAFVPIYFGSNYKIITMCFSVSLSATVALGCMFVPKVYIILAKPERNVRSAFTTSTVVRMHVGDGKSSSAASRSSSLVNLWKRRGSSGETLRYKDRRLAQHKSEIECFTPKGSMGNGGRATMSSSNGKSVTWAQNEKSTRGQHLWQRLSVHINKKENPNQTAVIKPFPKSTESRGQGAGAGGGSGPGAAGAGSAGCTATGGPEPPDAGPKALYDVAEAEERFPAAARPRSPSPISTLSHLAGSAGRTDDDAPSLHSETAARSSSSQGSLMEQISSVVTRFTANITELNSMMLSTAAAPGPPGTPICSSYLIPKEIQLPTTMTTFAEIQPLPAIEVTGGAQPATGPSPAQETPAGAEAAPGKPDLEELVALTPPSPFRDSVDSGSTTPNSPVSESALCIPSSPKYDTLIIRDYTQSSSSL

In the case of `NC(C(=O)O)c1cc(O)cc(O)c1` (racemic) [DHPG, (R,S)-3,5-DHPG], in assay [1] (Fmr1 KO neurons), the “rapid increase of Arc protein following DHPG stimulation” value was “absent”. In addition, the “level of Arc protein after DHPG” value in assay [1] (WT neurons, DHPG 50 μM, 5 min) is on record as “significantly increased the level of Arc; also recorded: induced”. In addition, the “increase in Arc protein 5 min after DHPG” value in assay [1] (eEF2K KO neurons) was “absent”. In assay [2] (DHPG 50 μM 5 min, relative to untreated dendrites), the “Arc immunoreactivity in dendrites” value came to 1.58±0.095. For the same compound, in assay [2] (DHPG 50 μM 5 min, relative to untreated soma), the “Arc immunoreactivity in cell body” value is given as 1.34±0.063. Moreover, the “level of Arc in soma or dendrites after DHPG” value in assay [2] (eEF2K KO hippocampal neurons) was “did not change the level of Arc”. Also, the phospho-eEF2 level entry in the assay on phospho-eEF2 is recorded as “dramatically increased”. Also, the “co-IP of mGluR5 with eEF2K” value on eEF2K-mGluR5 interaction was “decreased the co-IP of mGluR5”. In addition, the “reduction of ratio of surface to total GluR2/3” value in assay [3] (WT neurons) was ~30%; in assay [3] (eEF2K KO neurons) it was “did not significantly reduce”.
